Results as given in ChEMBL document CHEMBL1201862, “PubChem BioAssay data set” (2004).
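Exposure lasted 48 hours, with cells grown in 96-well plates and compounds tested at five concentrations. The concentration for 50% growth inhibition is given as GI50.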 Active and inactive are the calls of the source. No stated cut-off is given here; in the data, active = GI50 up to about 1.1 µM and inactive = higher.

Experiments:
Assay in all cases: inhibition of tumour cell growth, NCI panel, 48 h
A498 = tested on: A498
ACHN = tested on: ACHN
CAKI-1 = tested on: CAKI-1
CCRF-CEM = tested on: CCRF-CEM
COLO 205 = tested on: COLO 205
DLD-1 = tested on: DLD-1
HCC 2998 = tested on: HCC 2998
HCT-116 = tested on: HCT-116
HT-29 = tested on: HT-29
IGROV-1 = tested on: IGROV-1
MOLT-4 = tested on: MOLT-4
OVCAR-3 = tested on: OVCAR-3
SF-268 = tested on: SF-268
SK-MEL-2 = tested on: SK-MEL-2
SK-OV-3 = tested on: SK-OV-3
SNB-19 = tested on: SNB-19
SNB-78 = tested on: SNB-78
SW-620 = tested on: SW-620
TK-10 = tested on: TK-10
U-251 = tested on: U-251

Compound	GI50 (A498)	GI50 (ACHN)	GI50 (CAKI-1)	GI50 (CCRF-CEM)	GI50 (COLO 205)	GI50 (DLD-1)	GI50 (HCC 2998)	GI50 (HCT-116)	GI50 (HT-29)	GI50 (IGROV-1)	GI50 (MOLT-4)	GI50 (OVCAR-3)	GI50 (SF-268)	GI50 (SK-MEL-2)	GI50 (SK-OV-3)	GI50 (SNB-19)	GI50 (SNB-78)	GI50 (SW-620)	GI50 (TK-10)	GI50 (U-251)
Cc1ccc2[nH]c3c(C)c4ccncc4c(C)c3c2c1	1.5 µM (inactive)	1.09 µM (active)	0.906 µM (active)	0.242 µM (active)	0.873 µM (active)	0.333 µM (active)	1.48 µM (inactive)	0.322 µM (active)	1.06 µM (active)	0.944 µM (active)	0.231 µM (active)	1.12 µM (active)	0.733 µM (active)	1.59 µM (inactive)	2.23 µM (inactive)	1.24 µM (inactive)	1.73 µM (inactive)	0.384 µM (active)	3.81 µM (inactive)	1.16 µM (inactive)
CN(C(=O)c1ccccc1)c1ccc2c(c1)C(=O)c1ccccc1C2=O	–	> 100 µM (inactive)	> 100 µM (inactive)	> 100 µM (inactive)	> 100 µM (inactive)	–	> 100 µM (inactive)	> 100 µM (inactive)	> 100 µM (inactive)	> 100 µM (inactive)	> 100 µM (inactive)	> 100 µM (inactive)	> 100 µM (inactive)	> 100 µM (inactive)	> 100 µM (inactive)	–	–	> 100 µM (inactive)	> 100 µM (inactive)	> 100 µM (inactive)
COc1cc(C2C(Cl)C(=O)N2NC(=O)c2ccccc2O)ccc1O (stereo not drawn)	45.9 µM (inactive)	> 100 µM (inactive)	–	> 100 µM (inactive)	–	> 100 µM (inactive)	> 100 µM (inactive)	> 100 µM (inactive)	> 100 µM (inactive)	> 100 µM (inactive)	> 100 µM (inactive)	> 100 µM (inactive)	> 100 µM (inactive)	> 100 µM (inactive)	> 100 µM (inactive)	> 100 µM (inactive)	> 100 µM (inactive)	–	> 100 µM (inactive)	> 100 µM (inactive)
CC(=O)c1c(-c2ccco2)c(C#N)c(=S)n(C2OC(CO)C(O)C(O)C2O)c1C (stereo not drawn)	–	> 100 µM (inactive)	> 100 µM (inactive)	83.9 µM (inactive)	> 100 µM (inactive)	–	–	> 100 µM (inactive)	> 100 µM (inactive)	> 100 µM (inactive)	47.2 µM (inactive)	> 100 µM (inactive)	> 100 µM (inactive)	–	> 100 µM (inactive)	83.6 µM (inactive)	–	> 100 µM (inactive)	> 100 µM (inactive)	51.1 µM (inactive)
O=C(CCl)NNC1=Nc2ccc(Cl)cc2SC1	20.6 µM (inactive)	–	–	0.612 µM (active)	1.94 µM (inactive)	1.85 µM (inactive)	5.4 µM (inactive)	1.64 µM (inactive)	1.85 µM (inactive)	1.95 µM (inactive)	1.12 µM (active)	1.78 µM (inactive)	1.69 µM (inactive)	3.66 µM (inactive)	6.61 µM (inactive)	13.5 µM (inactive)	2.03 µM (inactive)	2.04 µM (inactive)	–	2.15 µM (inactive)
CN/N=C(\C(=O)Nc1ccc(C)c(C)c1)C(C(=O)OC)c1nc2ccc([N+](=O)[O-])cc2nc1O (stereo not drawn)	> 100 µM (inactive)	> 100 µM (inactive)	> 100 µM (inactive)	> 100 µM (inactive)	> 100 µM (inactive)	> 100 µM (inactive)	> 100 µM (inactive)	> 100 µM (inactive)	> 100 µM (inactive)	> 100 µM (inactive)	> 100 µM (inactive)	–	> 100 µM (inactive)	> 100 µM (inactive)	> 100 µM (inactive)	> 100 µM (inactive)	> 100 µM (inactive)	> 100 µM (inactive)	> 100 µM (inactive)	> 100 µM (inactive)
CCCCCn1cc2c3c(cccc31)C1C=C(C)CN(C)[C@@H]1C2.Cc1ccc(C(=O)OC(C(=O)O)C(OC(=O)c2ccc(C)cc2)C(=O)O)cc1 (stereo not drawn)	8.83 µM (inactive)	–	5.69 µM (inactive)	4.25 µM (inactive)	3.38 µM (inactive)	6.12 µM (inactive)	2.6 µM (inactive)	4.04 µM (inactive)	3.4 µM (inactive)	8.22 µM (inactive)	4.24 µM (inactive)	6.75 µM (inactive)	11 µM (inactive)	9.18 µM (inactive)	9.93 µM (inactive)	10.4 µM (inactive)	13.7 µM (inactive)	4.16 µM (inactive)	–	7.13 µM (inactive)
O=C1OC2(CC1C1(O)C3CC4CC(C3)CC1C4)C1CC3CC(C1)CC2C3 (stereo not drawn)	28.1 µM (inactive)	> 100 µM (inactive)	–	85.1 µM (inactive)	–	> 100 µM (inactive)	–	49.7 µM (inactive)	> 100 µM (inactive)	77.6 µM (inactive)	> 100 µM (inactive)	44.6 µM (inactive)	> 100 µM (inactive)	> 100 µM (inactive)	–	–	> 100 µM (inactive)	65.9 µM (inactive)	> 100 µM (inactive)	–
N#C/C(=C\c1ccncc1)c1csc2ccccc12	21.3 µM (inactive)	–	27.4 µM (inactive)	20.4 µM (inactive)	18.9 µM (inactive)	28.3 µM (inactive)	17.4 µM (inactive)	16.6 µM (inactive)	18.6 µM (inactive)	28 µM (inactive)	15.5 µM (inactive)	21.3 µM (inactive)	22.9 µM (inactive)	17.2 µM (inactive)	34.8 µM (inactive)	26 µM (inactive)	23.8 µM (inactive)	26.5 µM (inactive)	–	23.5 µM (inactive)
Cc1ccc([N+](=O)[O-])cc1S(=O)(=O)Nc1ccc(C2=NNC(c3ccccc3O)C2)cc1 (stereo not drawn)	19.9 µM (inactive)	23.6 µM (inactive)	25.1 µM (inactive)	16.6 µM (inactive)	24.7 µM (inactive)	–	34.7 µM (inactive)	21.9 µM (inactive)	28.8 µM (inactive)	40.7 µM (inactive)	24.1 µM (inactive)	13.5 µM (inactive)	32.1 µM (inactive)	25.2 µM (inactive)	25.1 µM (inactive)	33.8 µM (inactive)	–	31 µM (inactive)	0.416 µM (active)	–
CC1(C(=O)O)CCC(C(=O)O)C(C)(C)O1 (stereo not drawn)	–	> 100 µM (inactive)	> 100 µM (inactive)	> 100 µM (inactive)	> 100 µM (inactive)	–	> 100 µM (inactive)	> 100 µM (inactive)	> 100 µM (inactive)	> 100 µM (inactive)	> 100 µM (inactive)	29.2 µM (inactive)	> 100 µM (inactive)	> 100 µM (inactive)	> 100 µM (inactive)	> 100 µM (inactive)	–	> 100 µM (inactive)	> 100 µM (inactive)	> 100 µM (inactive)
